These results are taken from patent publication US20050203119A1, “Dihydropyridine compounds for treating or preventing metabolic disorders” (priority 2003, published 2005).

Some results are limits rather than exact numbers.

The subject of one series is primary rat hepatocytes. Kind of series: In vitro cytotoxicity study on primary rat hepatocytes (MTS). The format is cell-based. The note with it: Hepatocyte, 20 hours treatment with 0.4, 2, 10 and 50 μM, absorbance at 490 nm, read-out: Average EC50 (hepatocytes from at least 2 rats). Here is the method: Male SD rats having body weights of approximately 200 g were used for the study. Hepatocytes were freshly isolated and seeded with 15,000 cells/well in 96 wells coated with 100 μl collagen. The hepatocytes were cultured for 3-4 hours with HCM Bulletkit medium (Clonetics #CC-3198) then treated with 0.4 μM, 2 μM, 10 μM and 50 μM of a test compound for 20 hours. Flepatocytes were then incubated with MTS reagent (Promega #G5421) for 2-3 hours and absorbance in each well at […] was measured to determine the number of living cells in each well (the absorbance at 490 nm is directly proportional to the number of living cells in the well). The EC50 for each test compound was calculated with the Excel Xlfit wizard program based on the optical density values compared with vehicle treated cells.

For series [1], the system named is NIDDM male mice (C57BLKS/J-m+/+Lepr db). Kind of series: 7 day baseline glucose test in db/db mice (Example 119). The format is in vivo, mouse. The note with it: for Serum Glucose % Pre-Treatment Baseline: 3 hours after dose. Here is the method: Non-insulin dependent diabetic mellitus (NIDDM) male mice (C57BLKS/J-m+/+Lepr db), weighing 50±5 g and 9-10-week old, were used. The animals were housed in Individually Ventilated Cages Racks (IVC Racks) throughout the experiment and all animals were allowed free access to sterilized Lab chow and sterilized distilled water. Compounds 39, 41 and 64 at 50 mg/kg as well as vehicle (0.5% Methylcellulose) were administered orally once daily for 7 consecutive days to test animals after the first blood sampling (pre-treatment). The post-treatment blood samples were withdrawn from the orbital sinus at 3 hours after administration of daily dose on day 3 and on day 7. Serum glucose levels in the pre- and post-treatment were determined by enzymatic (Mutaratase-GOD) methods. Post-treatment serum glucose values were expressed in percentage of respective pre-treatment values. Percentage reductions were expressed in percentage of pre-treatment values of test substance relative to percentage of pre-treatment values of vehicle. All percentages were calculated and unpaired; Student's t test was then applied to establish significant difference between the test compound-treated and vehicle control groups. Differences are considered significant at P<0.05.

A further series deals with db/db mice. Kind of series: Combination studies of rosiglitazone or metformin with Compound 39, 7 days (Example 121). The format is in vivo, mouse. Here is the method: Serum glucose levels in the pre-and post-treatment were determined enzymatically (Mutaratase-GOD). Post-treatment serum glucose values were expressed in percentage of respective pre-treatment values. Percentage reductions were expressed in percentage of pre-treatment values of test substance relative to percentage of respective pre-treatment values of vehicle. All percentages were calculated and unpaired; Student's t test was then applied to establish significant difference between the test compound-treated and vehicle control groups. Differences are considered significant at P<0.05.

For another series, the system named is C57BLKS/J-m+/+Lepr db. The series is described as follows: Glucose reduction, Compound 36 in combination with rosiglitazone, db/db mice, 6 days (Example 117). The format is in vivo, mouse. The note with it: for Serum Glucose % Normalized Reduction: relative to vehicle. Here is the method:
C57BLKS/J-m+/+Lepr db were obtained from the Institute for Animal Reproduction (IAR, Japan), and randomized for equivalent mean blood glucose on day 0 (n=8/group). One group served as the vehicle control (0.5% methyl cellulose). […] Group 3 received 0.5 mg/kg rosiglitazone. […] All agents were administered once daily for 6 consecutive days starting on day 1. […] Post-treatment serum glucose value was expressed as percent pre-treatment from respective pre-treatment values, and percent reduction relative to vehicle control was calculated by subtracting from the percent pre-treatment of vehicle control.

Another series deals with male ob/ob mice. The series is described as follows: Oral glucose tolerance test in glucose-loaded ob/ob mice (Example 114, FIG. 1). The class given is in vivo, mouse. Here is the method:
Blood glucose was measured at 0, 30, 120 and 240 min post-glucose loading. Metformin and rosiglitazone were used as references.

The test system of the next series is Male SD rats. The following applies: rat, in vivo. Here is the method: Male SD rats weighing 350-420 g were anesthetized with 2-3% isoflurane. The femoral artery and vein were catheterized and connected to a mean arterial blood pressure (MAP) and heart rate (HR) monitor and a continuous intravenous infusion pump. Under anesthesia, MAP and HR were recorded 10-20 minutes prior to and during the continuous intravenous infusion of test compounds for 60-70 minutes. The infusion rate, 0.14-0.16 ml/kg/minute, was determined on the basis of vehicle tolerance. The infusion doses, 1.0-1.25 mg/kg/minute, were selected, depending upon the solubility of the compound and effects on MAP and HR of the positive control compounds at the lethal dose. The maximal effective dose or lethal dose of test compounds were determined accordingly.

In series [2] the test system is male db/db mice (BKS.Cg-m+/+Lepr db/J). Kind of series: Intraperitoneal glucose tolerance test (IPGTT) in db/db mice (Example 122, FIGS. 3 and 5). The format is in vivo, mouse. The following applies: Mus musculus, po, 0.75 h, read-out: Ave. % Change in Glucose Intolerance at +45 min.
Protocol: Six to eight week old, male db/db mice (BKS.Cg-m+/+Lepr^db/J; stock number 000642), homozygous for a mutation in the gene encoding the leptin receptor, were purchased from The Jackson Laboratory (Bar Harbor, Me. USA). Animals were singly housed in conventional caging on a 12 hr/12 hr light/dark cycle, acclimated for at least five days prior to use and fed normal laboratory chow ad libitum between experiments. Studies were conducted with animals between seven and fourteen weeks of age. Animals were used for a maximum of five consecutive studies, with a minimum recovery period of five days between studies.
To perform an IPGTT or OGTT, db/db mice were fasted overnight beginning on day 0 at −17.5 to −18.5 hrs relative to the glucose dose on day 1 (all time points below are stated relative to the time of an intraperitoneal or oral glucose dose on day 1). At −4.5 hrs, animals were weighed, blood was collected by tail vein lancing and fasted blood glucose levels determined using a hand-held glucometer (MediSense Precision Xtra or LifeScan OneTouch Ultra). Animals were randomized into dosing groups of 6-7 animals, with each group having a similar average fasted blood glucose level. At −3 hr, animals were dosed with vehicle alone, a test compound or metformin by oral gavage at 5 ml/kg body weight. […] Blood glucose levels were determined as above at −45 min and +45 min, and also +90 min and/or +150 min (see FIG. 3 and the Table in this section). Alternatively, blood glucose levels were determined at −30 min, +30 min, +60 min and +120 min (see FIGS. 4 and 5).
Compound doses were adjusted to be the molar equivalents of 50 mg/kg of Compound 39. The percent change in blood glucose between −45 min and a time point, y, after glucose dosing (e.g., +45 min, +150 min, ect.) was calculated for each animal using formula 1: [formula]
The percent change in blood glucose between −45 min and a time point, y, after glucose dosing was calculated for each animal using formula 1.
Average percent change in glucose intolerance was calculated using Formula 2, as noted in the table below. […]
[3] abbreviates: Day 3, 50 mg/kg orally once daily.
Setting [4] is: Day 7, 50 mg/kg orally once daily.
The mark [5] stands for this setting: Day 3, rosiglitazone 0.5 mg/kg orally daily.
Where [6] appears, read: Day 7, rosiglitazone 0.5 mg/kg orally daily.
Setting [7] is: Day 3, metformin 150 mg/kg orally daily.
Where [8] appears, read: Day 7, metformin 150 mg/kg orally daily.

Take `CCOC(=O)C1=C(COCCN)NC2=C(C(=O)CC(C)(C)C2)C1c1ccc(C)o1` (stereo not shown) [Compound 206, 2-(2-Amino-ethoxymethyl)-7,7-dimethyl-4-(5-methyl-furan-2-yl)-5-oxo-1,4,5,6,7,8-hexahydro-quinoline-3-carboxylic acid ethyl ester]: the EC50 in the series on primary rat hepatocytes was above 50 µM.
As to `CCOC(=O)C1=C(COCCN)NC2=C(C(=O)CC(C)(C)C2)C1c1ccccc1O` (stereo not shown) [Compound 64, 2-(2-Amino-ethoxymethyl)-4-(2-hydroxy-phenyl)-7,7-dimethyl-5-oxo-1,4,5,6,7,8-hexahydro-quinoline-3-carboxylic acid ethyl ester], the EC50 in the series with primary rat hepatocytes was above 50 µM. Also, in series [1] (setting [3]), the “serum glucose % Reduction relative to vehicle” value was “(10) %” and the “Serum Glucose % Pre-Treatment Baseline” value is given as 85.9%. Further, in series [1] (setting [4]), the “serum glucose % Reduction relative to vehicle” value is “(12) %” and the “Serum Glucose % Pre-Treatment Baseline” value is on record as 88.6%.
In the case of `CCOC(=O)C1=C(COCCN)NC2=C(C(=O)CC(C)(C)C2)C1c1ccccc1F` (stereo not shown) [Compound 12, 2-(2-amino-ethoxymethyl)-4-(2-fluoro-phenyl)-7,7-dimethyl-5-oxo-1,4,5,6,7,8-hexahydro-quinoline-3-carboxylic acid ethyl ester], in the series on primary rat hepatocytes, the EC50 is above 50 µM.
Same read-out and setting: with `CCOC(=O)C1=C(C)NC2=C(C(=O)CC(C)(C)C2)C1c1cccnc1` (stereo not shown) [Compound 202, 2,7,7-Trimethyl-4-(pyrid-3-yl)-5-oxo-1,4,5,6,7,8-hexahydro-quinoline-3-carboxylic acid ethyl ester] the figure was above 50 µM; with `CCOC(=O)C1=C(COCCN)NC2=C(C(=O)CC(C)(C)C2)C1c1ccccc1OC` (stereo not shown) [Compound 16, 2-(2-Amino-ethoxymethyl)-4-(2-methoxy-phenyl)-7,7-dimethyl-5-oxo-1,4,5,6,7,8-hexahydro-quinoline-3-carboxylic acid ethyl ester], above 50 µM; with `CCOC(=O)C1=C(COCCN)NC2=C(C(=O)CC(C)(C)C2)C1c1ccco1` (stereo not shown) [Compound 96, 2-(2-Amino-ethoxymethyl)-4-furan-2-yl-7,7-dimethyl-5-oxo-1,4,5,6,7,8-hexahydro-quinoline-3-carboxylic acid ethyl ester], above 50 µM.
As to `CCOC(=O)C1=C(COCCN)N(C)C2=C(C(=O)CC(C)(C)C2)C1c1cccnc1` (stereo not shown) [Compound 66, 2-(2-Amino-ethoxymethyl)-1,7,7-trimethyl-5-oxo-4-pyridin-3-yl-1,4,5,6,7,8-hexahydro-quinoline-3-carboxylic acid ethyl ester], the EC50 in the series on primary rat hepatocytes was above 50 µM.
As for `CN(CCOc1ccc(CC2SC(=O)NC2=O)cc1)c1ccccn1` (stereo not shown) [rosiglitazone, reference compound], the “Serum Glucose % Pre-Treatment Baseline” value with db/db mice (setting [5]) is reported as 72.2 ± 6.5%; in the series with db/db mice (setting [6]), 61.2 ± 6.6%; with C57BLKS/J-m+/+Lepr db (Day 3, rosiglitazone 0.5 mg/kg) it was 90.3 ± 3.1%; in the series on C57BLKS/J-m+/+Lepr db (Day 6, rosiglitazone 0.5 mg/kg), 79.1 ± 1.9%. Moreover, the “serum glucose % Reduction relative to vehicle” value with db/db mice (setting [5]) was “(22.4) %”; with db/db mice (setting [6]), “(39.5) %”. Moreover, the “Serum Glucose % Normalized Reduction” value in the series on C57BLKS/J-m+/+Lepr db (Day 3, rosiglitazone 0.5 mg/kg) is “(15.3) %”; in the series with C57BLKS/J-m+/+Lepr db (Day 6, rosiglitazone 0.5 mg/kg), 28.8%; in the series with C57BLKS/J-m+/+Lepr db (Day 6, rosiglitazone 0.5 mg/kg, listed as Rosiglitazone), “(28.8) %”. For the same molecule, in the series with male ob/ob mice (rosiglitazone 1 mg/kg (FIG. 1), 4 hours post-glucose loading), the “blood glucose after oral glucose loading” value is around 300 mg/dL.
For `CCOC(=O)C1=C(COCCN)NC(C)=C(C(=O)OC)C1c1ccccc1Cl` (stereo not shown) [Amlodipine, amlodipine, reference compound], in the series with Male SD rats, the “Lethal Dose” value is “˜12.7 mg/kg”.
For the molecule `CN(C)C(=N)N=C(N)N` [metformin], the “Serum Glucose % Pre-Treatment Baseline” value in the series with db/db mice (setting [7]) amounted to 68.5 ± 3.7%; with db/db mice (setting [8]), 72.2 ± 5.7%. For the same molecule, the “serum glucose % Reduction relative to vehicle” value in the series with db/db mice (setting [7]) was “(26.4) %”; in the series on db/db mice (setting [8]), “(28.7) %”. For the same molecule, the change in vivo at 150 mg/kg in series [2] was -48.7%. The “blood glucose after oral glucose loading” value in the series with male ob/ob mice (metformin 100 mg/kg (FIG. 1), glucose 3 g/kg, fasted ob/ob mice) is recorded as “approximately 200 mg/dl”.
With `CC1(C)CC(=O)C2=C(C1)NC(COCCN)=C(C#N)C2c1ccccc1Cl` (stereo not shown) [Compound 41, 2-(2-Amino-ethoxymethyl)-4-(2-chloro-phenyl)-7,7-dimethyl-5-oxo-1,4,5,6,7,8-hexahydro-quinoline-3-carbonitrile], the “serum glucose % Reduction relative to vehicle” value in series [1] (setting [3]) is “(2) %”; in series [1] (setting [4]), “(6) %”. In addition, the “Serum Glucose % Pre-Treatment Baseline” value in series [1] (setting [3]) is listed as 93.3%; in series [1] (setting [4]), 94.1%.
Regarding `CC1=C(C#N)C(C2CC2)C2=C(CC(C)(C)CC2=O)N1` (stereo not shown) [Compound 222, 2,7,7-Trimethyl-4-cyclopropyl-5-oxo-1,4,5,6,7,8-hexahydro-quinoline-3-carbonitrile], the EC50 with primary rat hepatocytes is above 50 µM.
On the same count and under the same terms, with `CCOC(=O)C1=C(COCCN)NC2=C(C(=O)CC(C)(C)C2)[C@H]1c1cccnc1` [39 R-enantiomer, (+)-(R)-2-(2-Amino-ethoxymethyl)-7,7-dimethyl-5-oxo-4-pyridin-3-yl-1,4,5,6,7,8-hexahydro-quinoline-3-carboxylic acid ethyl ester] the figure was above 50 µM.
Turning to `CCOC(=O)C1=C(COCCN)NC2=C(C(=O)CC(C)(C)C2)[C@@H]1c1ccccc1Cl` [Compound 36, S-(−)-2-(2-amino-ethoxymethyl)-4-(2-chloro-phenyl)-7,7-dimethyl-5-oxo-1,4,5,6,7,8-hexahydro-quinoline-3-carboxylic acid ethyl ester; complex with benzenesulfonic acid], the “Serum Glucose % Pre-Treatment Baseline” value is given as 103.0 ± 2.4% in the series on C57BLKS/J-m+/+Lepr db (Day 3, Compound 36 10 mg/kg); 100.3 ± 2.8% in the series with C57BLKS/J-m+/+Lepr db (Day 3, Compound 36 25 mg/kg); 100.7 ± 4.6% in the series with C57BLKS/J-m+/+Lepr db (Day 6, Compound 36 10 mg/kg); 99.7 ± 5.4% in the series on C57BLKS/J-m+/+Lepr db (Day 6, Compound 36 25 mg/kg). Moreover, the “Serum Glucose % Normalized Reduction” value is listed as “(2.6) %” with C57BLKS/J-m+/+Lepr db (Day 3, Compound 36 10 mg/kg); “(5.3) %” in the series with C57BLKS/J-m+/+Lepr db (Day 3, Compound 36 25 mg/kg); “(7.2) %” with C57BLKS/J-m+/+Lepr db (Day 6, Compound 36 10 mg/kg); “(8.2) %” with C57BLKS/J-m+/+Lepr db (Day 6, Compound 36 25 mg/kg). In addition, in the series on male ob/ob mice (25 mg/kg orally, glucose 3 g/kg, fasted ob/ob mice), the “blood glucose after oral glucose loading” value is given as “approximately 200 mg/dl”.

For orientation: EC50 means the concentration at which the effect is half-maximal.
